# US11432549B2, “Carbamoyl triazolinone based herbicide combinations and method of use” (Arysta LifeScience Corporation, priority 2009, dated 2022)
# Columns and labels:
# [1] = tested on: Kentucky Bluegrass Seedling; conditions: in vivo
# Method: (§1) Containers were watered as needed based on species and water usage. The greenhouse was heated to keep temperatures above 50° F. (10° C.) and ventilated as needed to keep temperatures below 100° F. (38° C.). Typical daytime temperatures in the greenhouse were 80-90° F. (27-32° C.) and nighttime temperatures were between 50-60° F. (10-16° C.). The soil employed was Promix BX potting soil. Overall moisture conditions were normal and the closest weather station was on-site. Conditions and equipment employed in this Example are tabulated below in Tables 5-1 and 5-2.
# (§2) All containers were moved outdoors from the greenhouse and arranged in blocks by treatment for the herbicide applications. A single spray application was applied to each block containing four repetitions of each species for each treatment. Plants were then immediately returned to the greenhouse and irrigated with approximately ¼″ water 1-3 hrs after treatment with a hose end sprayer. Only the Poa plants were trimmed with scissors two days prior to treatment at a height of approximately 3 inches.
# […] Tall fescue was seeded into the crabgrass pots. St. Augustine plants (Floratam and Saphire) were shipped from Port St. Lucie, Fla. Only two replicates of Saphire St. Augustine grass were used due to plant availability.
# Referring to FIGS. 2A-B, 3A-C, 4A-C, and 5A-D, all ratings of injury or bleaching are based on a scale from 1 to 9. […]
# [2] = tested on: Poa annua; test: Ex 5/7 greenhouse spray, bleaching/injury ratings; assay type: in vivo
# Method: as §1, §2
# Transplanted tillering Kentucky Bluegrass was 5 to 6 months old, transplanted Poa annua was 5 to 6 months old. Tall fescue was seeded into the crabgrass pots. St. Augustine plants (Floratam and Saphire) were shipped from Port St. Lucie, Fla. Only two replicates of Saphire St. Augustine grass were used due to plant availability.
# Referring to FIGS. 2A-B, 3A-C, 4A-C, and 5A-D, all ratings of injury or bleaching are based on a scale from 1 to 9. […] Any bleaching measurement 4 and above was considered unacceptable for desirable turf species. In injury measurements, 1 indicates no injury while 9 indicates a dead plant. Any injury measurement 4 and above was considered unacceptable for desirable turf species). Density correlates with percent cover where 1 indicates no grass while 9 indicates a full pot.
# Replications employed include 4, Untreated treatments: 1, Design: Randomized Complete Block, Treatment units: US standard, Treated plot size Width: 4 feet, Treated plot size Length: 4 feet, Application volume: 50 gal/ac, Mix size: 0.5562 liters, Mix overage: 100%, Format definitions: G-All7.DEF, G-All7.FRM.
# In evaluating synergism, the data from Example 5 above were converted to % of control. This was done based on the data provided on a 1-9 scale detailed in Example 5. Expected values were computed from the % of control data by the formula for expected control=[…], where A is the % of control value for herbicide A alone and B is the % of control value for herbicide B alone.
# [3] = tested on: Euphorbia heterophylla (EPHHL); test: Ex 4 pre-emergence, visual % damage; assay type: in vivo
# Method: DINAMIC® (amicarbazone) in combination of various herbicides listed in Table 4-1 were tested for herbicidal activity.
# (§3) The herbicidal effect was observed by comparing the extent of Euphorbia heterophylla (EPHHL) treated with the compounds against that occurring in similar non-treated control. Herbicidal effect was visually assessed and recorded at 14, 23, 36, 49, 65 and 77 days after treatment (DAT). Damage by the herbicidal compositions was evaluated with reference to a scale of 0% to 100% in comparison with untreated control. 0% means no damage and 100% means complete destruction of the plants.
# (§4) The theoretical herbicidal effect index were calculated based on Colby and the values were indicated in bracket ( ) in Table 4-2. Both of the herbicidal mixtures (amicarbazone+Karmex) and (amicarbazone+Sencor) exert a greater herbicidal action than expected according to Colby on the basis of the observed effects of the individual components when used alone. […] The underlined values in the table indicate that the observed weed killing is greater than calculated from the Colby formula and therefore indicates a synergistic weed killing effect or activity.
# [4] = tested on: Cyperus esculentus; test: Ex 2 pre-emergence, visual % damage; assay type: in vivo; conditions: kg/ha: Amicarbazone 1.5, Clomazone/Hexazinone 2.0, mixture 1.5 + 2.0
# From the text: DINAMIC® (amicarbazone) and Discover (clomazone 400 g/kg+hexazinone 100 g/kg) alone or in combination were applied pre-emergence in this study. The formulations for DINAMIC® and Discover were 700 g active ingredient a.i./kg and 500 g active ingredient a.i/kg respectively.
# as §3, with “Cyperus esculentus” for “Euphorbia heterophylla (EPHHL)”, “27, 43, 46, 60, 63, 77, 83, 97” for “14, 23, 36, 49, 65”, “124” for “77”
# as §4, with “2-1. The” for “4-2. Both of the”, “(amicarbazone+(clomazone/hexazinone))” for “(amicarbazone+Karmex) and (amicarbazone+Sencor)”
# [5] = rating 1, 0.022 lbs ai/A (0.5 oz/A)
# [6] = rating 1, 0.13 lbs ai/A (3 oz/A)
# [7] = rating 2, 0.022 lbs ai/A (0.5 oz/A)
# [8] = rating 2, 0.13 lbs ai/A (3 oz/A)
# [9] = rating 3, 0.022 lbs ai/A (0.5 oz/A)
# [10] = rating 3, 0.13 lbs ai/A (3 oz/A)
# [11] = rating 4, 0.022 lbs ai/A (0.5 oz/A)
# [12] = rating 4, 0.13 lbs ai/A (3 oz/A)
smiles,measurement,setting,value
"CC(C)c1nn(C(=O)NC(C)(C)C)c(=O)n1N [Amicarbazone, 4-amino-5-isopropyl-2-(tert-butyl-aminocarbonyl)-2,4-dihydro-3H-1,2,4-triazol-3-one]",injury to seedlings,[1],injured Kentucky Bluegrass seedlings
same,control of annual bluegrass,"[2]; high rate, by itself",reasonable control
same,Annual bluegrass bleaching,[2]; [5],100 % of control
same,Annual bluegrass injury,[2]; [5],104 % of control
same,Annual bluegrass bleaching,[2]; [6],100 % of control
same,Annual bluegrass injury,[2]; [6],71 % of control
same,Annual bluegrass bleaching,[2]; [7],100 % of control
same,Annual bluegrass injury,[2]; [7],104 % of control
same,Annual bluegrass bleaching,[2]; [8],100 % of control
same,Annual bluegrass injury,[2]; [8],61 % of control
same,Annual bluegrass bleaching,[2]; [9],100 % of control
same,Annual bluegrass injury,[2]; [9],108 % of control
same,Annual bluegrass bleaching,[2]; [10],91 % of control
same,Annual bluegrass injury,[2]; [10],67 % of control
same,Annual bluegrass bleaching,"[2]; rating 4/2, 0.022 lbs ai/A (0.5 oz/A)",100 % of control
same,Annual bluegrass bleaching,"[2]; rating 4/2, 0.13 lbs ai/A (3 oz/A)",88 % of control
same,Annual bluegrass bleaching,[2]; [11],107 % of control
same,Annual bluegrass injury,[2]; [11],96 % of control
same,Annual bluegrass bleaching,[2]; [12],94 % of control
same,Annual bluegrass injury,[2]; [12],53 % of control
same,Annual bluegrass injury,"[2]; rating 5, 0.022 lbs ai/A (0.5 oz/A)",90 % of control
same,Annual bluegrass injury,"[2]; rating 5, 0.13 lbs ai/A (3 oz/A)",52 % of control
same,Annual bluegrass injury,"[2]; rating 6, 0.022 lbs ai/A (0.5 oz/A)",85 % of control
same,Annual bluegrass injury,"[2]; rating 6, 0.13 lbs ai/A (3 oz/A)",31 % of control
same,Annual bluegrass injury,"[2]; rating 7, 0.022 lbs ai/A (0.5 oz/A)",85 % of control
same,Annual bluegrass injury,"[2]; rating 7, 0.13 lbs ai/A (3 oz/A)",24 % of control
same,percentage control,"[3]; 14 DAT, kg/ha or L/ha: Amicarbazone 1.00, Gesapax 3.00, Karmex 3.00, Provence 0.15, Sencor 2.00, alone or Amicarbazone + partner",96%
same,percentage control,"[3]; 14 DAT, kg/ha or L/ha: Amicarbazone 1.50, Gesapax 5.00, Karmex 5.00, Provence 0.20, Sencor 3.50, alone",98%
same,percentage control,"[3]; 23 DAT, kg/ha or L/ha: Amicarbazone 1.00, Gesapax 3.00, Karmex 3.00, Provence 0.15, Sencor 2.00, alone or Amicarbazone + partner",96%
same,percentage control,"[3]; 23 DAT, kg/ha or L/ha: Amicarbazone 1.50, Gesapax 5.00, Karmex 5.00, Provence 0.20, Sencor 3.50, alone",98%
same,percentage control,"[3]; 36 DAT, kg/ha or L/ha: Amicarbazone 1.00, Gesapax 3.00, Karmex 3.00, Provence 0.15, Sencor 2.00, alone or Amicarbazone + partner",96%
same,percentage control,"[3]; 36 DAT, kg/ha or L/ha: Amicarbazone 1.50, Gesapax 5.00, Karmex 5.00, Provence 0.20, Sencor 3.50, alone",96%
same,percentage control,"[3]; 49 DAT, kg/ha or L/ha: Amicarbazone 1.00, Gesapax 3.00, Karmex 3.00, Provence 0.15, Sencor 2.00, alone or Amicarbazone + partner",79%
same,percentage control,"[3]; 49 DAT, kg/ha or L/ha: Amicarbazone 1.50, Gesapax 5.00, Karmex 5.00, Provence 0.20, Sencor 3.50, alone",96%
same,percentage control,"[3]; 65 DAT, kg/ha or L/ha: Amicarbazone 1.00, Gesapax 3.00, Karmex 3.00, Provence 0.15, Sencor 2.00, alone or Amicarbazone + partner",79%
same,percentage control,"[3]; 65 DAT, kg/ha or L/ha: Amicarbazone 1.50, Gesapax 5.00, Karmex 5.00, Provence 0.20, Sencor 3.50, alone",96%
same,percentage control,"[3]; 77 DAT, kg/ha or L/ha: Amicarbazone 1.00, Gesapax 3.00, Karmex 3.00, Provence 0.15, Sencor 2.00, alone or Amicarbazone + partner",75%
same,percentage control,"[3]; 77 DAT, kg/ha or L/ha: Amicarbazone 1.50, Gesapax 5.00, Karmex 5.00, Provence 0.20, Sencor 3.50, alone",90%
same,percentage control,"[4]; Trial 1, 43 DAT",40%
same,percentage control,"[4]; Trial 1, 63 DAT",62%
same,percentage control,"[4]; Trial 1, 77 DAT",65%
same,percentage control,"[4]; Trial 2, 27 DAT",37%
same,percentage control,"[4]; Trial 2, 46 DAT",53%
same,percentage control,"[4]; Trial 2, 60 DAT",57%
same,percentage control,"[4]; Trial 2, 83 DAT",68%
same,percentage control,"[4]; Trial 2, 97 DAT",53%
same,percentage control,"[4]; Trial 2, 124 DAT",23%
